One series addresses wild type CTFR channel (Homo sapiens (Human), UniProt P13569). Nature of the series: in vitro EC50 against the wild type CFTR channel. In kind it is cell-based. An excerpt: There is no preclinical in vivo model of CFTR potentiation.
Series [1] concerns Any Pathogen (Haemophilus parainfluenza, Haemophilus influenza, Pseudomonas aeruginosa, Moraxella, Streptococcus pneumonia) in sputum. Nature of the series: Phase II study in COPD patients: sputum microbiology, any pathogen. To be noted: for patients colonized, n (%) / patients with a positive culture, n (%): Any Pathogen; for patients colonized, n (%): all patients in sputum analysis; for patients with a positive culture, n (%): only subjects with a pathogen at baseline; for percent of patients who cleared colonization: patients with culture positive sputum at Baseline. In kind it is in vivo. On the procedure:
A double-blinded, randomized, placebo-controlled, non-confirmatory, and multi-center, fixed-dose study of Compound A in COPD patients was conducted to assess efficacy, safety, tolerability, pharmacokinetics (PK), and pharmacodynamics (PD). Patients were randomized and stratified by smoking status (former vs current smokers). The double-blind placebo-controlled treatment period was 28 days (Day 1 to Day 28) and included visits on Days 1, 14 and 28. Eligible patients were randomized in a 2:1 ratio to receive 300 mg b.i.d. of Compound A or matching placebo for 28 consecutive days. Of note, the first 4 patients enrolled randomized in this study received 450 mg b.i.d. of Compound A or placebo, prior to an amendment reducing the dose and thereafter the dose was reduced to 300 mg b.i.d. of Compound A. The single-blind placebo-controlled follow-up period was 28 days. The follow-up period included a visit on Day 29 for key primary and secondary objective efficacy assessments, weekly follow-up contact via telephone, and an End-of-Study (EOS) visit on Day 56. Number of patients (planned and analyzed): Ninety two (92) patients were randomized into the study. The majority of the patients (N=78, 84.8%) completed the study as planned. A total of 14 patients discontinued the study (N=2 from placebo group and N=12 from Compound A group). The reasons for discontinuations include adverse events, protocol deviations (failure to meet inclusion/exclusion at Baseline), patient decision, abnormal laboratory values (positive drug screen) and administrative problems (patient unable to return to site for visits).
Spontaneous sputum was collected from patients and used to quantify colony forming units (CFUs) as a potential efficacy marker. The collected sputum samples were cultured for the following specific bacteria: Haemophilus parainfluenza, Haemophilus influenza, Pseudomonas aeruginosa, Moraxella, and Streptococcus pneumonia. In the event of bacterial growth for one or more of the above five pathogens, then the test result was reported, including the quantitative growth. In order to be included in the sputum analysis, a patient must have provided a sufficient sputum sample at baseline and at least one other visit (Day 14, Day 29 or EOS).
A decrease in airway bacterial colonization as detected in the sputum is considered improvement. In Table 4, the frequency (n, %) of patients was reported by treatment with Compound A and type of bacteria. Within each treatment group, the percentage was calculated as number of patients who were colonized with bacteria divided with total number of patients who produced a sputum sample at that time point.
For the treatment effect a summary table, the frequency (n, %) of patients with a positive culture was reported by each treatment. Only patients with a positive culture at baseline are included in this analysis. Percentage was calculated as number of patients who are colonized (i.e., have at least one culture resulted) divided with total number of patients who produced a sputum sample at each visit, by treatment.

A further series has as its system patients with CF. Nature of the series: Clinical study in cystic fibrosis patients: lung function (FEV1). Particulars: two weeks of treatment, listed as Compound A. In kind it is in vivo, human.
For a further series, the system named is CYP3A4/5. Nature of the series: Time dependent inhibition and induction of CYP3A4/5. In kind it is in vitro ADME.
A further series addresses OATP1B1 (Homo sapiens (Human), UniProt Q9Y6L6). Nature of the series: in vitro inhibition of OATP1B1. In kind it is in vitro ADME.
In a further series the target is UGT1A1 (Homo sapiens (Human), UniProt P22309). Nature of the series: in vitro inhibition of UGT1A1. In kind it is in vitro ADME.
Sequence of UGT1A1 (P22309 26-533): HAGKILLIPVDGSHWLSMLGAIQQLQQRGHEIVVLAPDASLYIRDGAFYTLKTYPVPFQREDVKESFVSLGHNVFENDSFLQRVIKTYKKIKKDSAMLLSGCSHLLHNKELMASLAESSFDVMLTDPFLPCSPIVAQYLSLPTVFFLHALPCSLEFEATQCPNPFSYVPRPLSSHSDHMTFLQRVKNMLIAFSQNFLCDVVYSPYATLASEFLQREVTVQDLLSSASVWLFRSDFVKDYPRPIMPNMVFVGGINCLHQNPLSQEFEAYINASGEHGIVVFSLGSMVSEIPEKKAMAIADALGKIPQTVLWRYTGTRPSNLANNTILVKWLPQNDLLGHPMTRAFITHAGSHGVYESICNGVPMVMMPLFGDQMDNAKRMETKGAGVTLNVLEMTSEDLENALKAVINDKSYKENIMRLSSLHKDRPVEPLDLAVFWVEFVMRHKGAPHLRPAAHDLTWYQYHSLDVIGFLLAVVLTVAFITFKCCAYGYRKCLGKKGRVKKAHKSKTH
The target in the next series is UGT2B7 (Homo sapiens (Human), UniProt P16662). Nature of the series: in vitro inhibition of UGT2B7. In kind it is in vitro ADME.
Sequence of UGT2B7 (P16662 24-529): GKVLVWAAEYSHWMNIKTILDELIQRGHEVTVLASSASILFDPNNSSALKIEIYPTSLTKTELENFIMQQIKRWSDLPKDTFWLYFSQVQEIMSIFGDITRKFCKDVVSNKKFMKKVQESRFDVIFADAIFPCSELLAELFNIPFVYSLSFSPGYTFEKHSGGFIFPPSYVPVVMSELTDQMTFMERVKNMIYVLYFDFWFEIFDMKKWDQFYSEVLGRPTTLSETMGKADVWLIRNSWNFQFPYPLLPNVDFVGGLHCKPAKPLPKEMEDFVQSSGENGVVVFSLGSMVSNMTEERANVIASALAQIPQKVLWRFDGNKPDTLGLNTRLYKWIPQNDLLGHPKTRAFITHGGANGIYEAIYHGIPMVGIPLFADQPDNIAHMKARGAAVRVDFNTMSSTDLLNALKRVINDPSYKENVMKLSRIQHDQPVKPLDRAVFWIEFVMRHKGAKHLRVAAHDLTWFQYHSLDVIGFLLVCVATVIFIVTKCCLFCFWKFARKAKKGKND
Another series can be described thus: in vivo. To be noted: monkey.

“Also recorded” adds a separate entry of the source.

We go through 1 compound from patent US20240058315A1, “Pyridine and Pyrazine derivative for the Treatment of CF, COPD, and Bronchiectasis” (NOVARTIS AG, priority 2019, published 2024).

Sequence of wild type CTFR channel (P13569 whole entry): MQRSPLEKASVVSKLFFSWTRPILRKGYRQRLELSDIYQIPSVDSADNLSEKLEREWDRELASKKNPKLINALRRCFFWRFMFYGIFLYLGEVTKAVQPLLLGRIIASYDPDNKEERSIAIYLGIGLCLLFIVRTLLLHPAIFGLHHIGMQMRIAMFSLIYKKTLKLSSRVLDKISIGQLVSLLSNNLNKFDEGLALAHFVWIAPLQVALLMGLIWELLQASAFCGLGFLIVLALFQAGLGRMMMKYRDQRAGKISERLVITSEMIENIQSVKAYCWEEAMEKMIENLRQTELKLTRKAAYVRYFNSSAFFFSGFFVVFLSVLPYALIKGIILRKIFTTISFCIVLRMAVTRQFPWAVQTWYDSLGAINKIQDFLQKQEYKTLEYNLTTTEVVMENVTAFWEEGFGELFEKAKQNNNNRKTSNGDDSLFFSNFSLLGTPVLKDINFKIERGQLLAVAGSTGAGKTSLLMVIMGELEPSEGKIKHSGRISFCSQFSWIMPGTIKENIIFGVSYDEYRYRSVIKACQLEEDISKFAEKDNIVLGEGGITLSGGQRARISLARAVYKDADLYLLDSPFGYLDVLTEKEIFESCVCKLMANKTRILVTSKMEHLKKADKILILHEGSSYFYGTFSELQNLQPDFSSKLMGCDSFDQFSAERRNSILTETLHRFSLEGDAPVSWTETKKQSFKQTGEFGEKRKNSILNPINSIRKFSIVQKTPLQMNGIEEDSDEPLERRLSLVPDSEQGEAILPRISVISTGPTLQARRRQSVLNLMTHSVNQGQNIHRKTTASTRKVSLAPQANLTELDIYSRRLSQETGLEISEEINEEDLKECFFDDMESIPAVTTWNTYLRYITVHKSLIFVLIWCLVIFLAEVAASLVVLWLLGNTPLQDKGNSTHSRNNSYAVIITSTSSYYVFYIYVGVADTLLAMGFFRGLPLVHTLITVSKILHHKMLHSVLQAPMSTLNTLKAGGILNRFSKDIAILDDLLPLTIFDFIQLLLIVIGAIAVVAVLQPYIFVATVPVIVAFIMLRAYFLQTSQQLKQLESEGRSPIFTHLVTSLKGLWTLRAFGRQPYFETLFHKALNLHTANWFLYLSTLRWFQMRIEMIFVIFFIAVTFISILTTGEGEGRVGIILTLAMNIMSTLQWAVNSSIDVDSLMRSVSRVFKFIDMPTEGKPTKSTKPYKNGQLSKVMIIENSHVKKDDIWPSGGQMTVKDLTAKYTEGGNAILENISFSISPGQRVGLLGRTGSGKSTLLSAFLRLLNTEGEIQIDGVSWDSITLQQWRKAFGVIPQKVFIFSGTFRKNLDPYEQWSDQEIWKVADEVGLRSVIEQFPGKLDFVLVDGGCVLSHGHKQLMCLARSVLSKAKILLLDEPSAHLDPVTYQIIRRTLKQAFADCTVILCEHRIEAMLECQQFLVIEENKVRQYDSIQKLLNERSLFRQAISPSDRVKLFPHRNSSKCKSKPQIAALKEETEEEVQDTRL
Sequence of OATP1B1 (Q9Y6L6 whole entry): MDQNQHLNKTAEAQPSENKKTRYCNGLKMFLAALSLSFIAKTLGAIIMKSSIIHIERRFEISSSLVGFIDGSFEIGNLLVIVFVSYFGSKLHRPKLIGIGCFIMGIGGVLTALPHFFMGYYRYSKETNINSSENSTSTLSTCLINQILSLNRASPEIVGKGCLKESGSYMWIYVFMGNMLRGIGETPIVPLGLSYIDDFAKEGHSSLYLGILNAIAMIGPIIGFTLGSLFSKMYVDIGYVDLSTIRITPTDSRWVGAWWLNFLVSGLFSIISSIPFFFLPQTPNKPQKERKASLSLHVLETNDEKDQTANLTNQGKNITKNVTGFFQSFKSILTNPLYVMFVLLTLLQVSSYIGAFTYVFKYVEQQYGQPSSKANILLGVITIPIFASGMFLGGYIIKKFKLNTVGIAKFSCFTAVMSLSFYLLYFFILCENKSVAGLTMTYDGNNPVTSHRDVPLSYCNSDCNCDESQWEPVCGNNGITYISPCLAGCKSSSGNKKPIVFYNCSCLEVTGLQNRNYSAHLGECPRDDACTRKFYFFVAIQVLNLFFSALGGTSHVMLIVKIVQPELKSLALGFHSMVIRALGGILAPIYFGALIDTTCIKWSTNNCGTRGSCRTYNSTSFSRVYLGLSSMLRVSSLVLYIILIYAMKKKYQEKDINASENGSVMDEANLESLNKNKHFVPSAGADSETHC

In the case of `COc1nc(C(=O)NC[C@](C)(O)C(F)(F)F)c(N)cc1C(F)(F)F` (single isomer, unassigned) [Example 5], the EC50 on wild type CTFR channel is 72 nM. Also, the “patients colonized, n (%)” value in series [1] (Baseline) is 26 (57.8) n (%); in series [1] (D14) it was 23 (53.5) n (%); in series [1] (D29), 23 (54.8) n (%); in series [1] (EOS), 17 (40.5) n (%). Also, in series [1] (Baseline, sputum analysis set), the “bacterial colonization, percent of patients” value worked out at 58%. Further, the entries for the “patients with a positive culture, n (%)” value in series [1] (D14), in series [1] (D29) and in series [1] (EOS) were 19 (76.0) n (%), 18 (75.0) n (%) and 14 (58.3) n (%), respectively. Moreover, the “percent of patients who cleared colonization” value in series [1] (Day 29, placebo 15%) amounted to 25%; in series [1] (EOS, placebo 23%), 42%. The “percent of patients colonized” value turned out to be 55% in series [1] (Day 29, sputum analysis set, placebo 70%) and 41% in series [1] (EOS, sputum analysis set, placebo 74%). In the series on patients with CF, the “lung function (FEV1)” value was “significant improvement; also recorded: statistically important improvement”. In the series on CYP3A4/5, the “effect on CYP3A4/5” value was “time dependent inhibitor and inducer”. In addition, the “inhibition of OATP1B1” value against OATP1B1 is on record as “Weak in vitro inhibition”. The “inhibition of UGT1A1” value at UGT1A1 is given as “Weak in vitro inhibition”. Moreover, the “inhibition of UGT2B7” value against UGT2B7 was “Weak in vitro inhibition”. Also, the AUC(0-t) in “in vivo” (NOAEL exposure, AUC0-24 h (exposure threshold), chronic monkey toxicology study) was 91.7 µg·h/mL; in “in vivo” (upper range of the individual animal (monkey) exposures, AUC0-24 h), 159 µg·h/mL.
